Data from ChEMBL document CHEMBL1142355, “Antimalarial dual drugs based on potent inhibitors of glutathione reductase from Plasmodium falciparum” (J Med Chem, 2008).

What was measured:
Plasmodium falciparum [1] = test: Antiparasitic activity against chloroquine-sensitive Plasmodium falciparum 3D7; assay type: functional, organism-based
Plasmodium falciparum [2] = test: Antiparasitic activity against chloroquine-resistant Plasmodium falciparum K1; assay type: functional, organism-based
Plasmodium falciparum [3] = test: Relative IC50 against Plasmodium falciparum K1 and 3D7; assay type: functional
KB = test: Cytotoxicity against human KB cells by alamar blue assay; assay type: functional, cell-based; conditions: for CC50: read-out: TD50 (the source's name)
Plasmodium falciparum [4] = test: microbe, parasite or virus in culture; conditions: 3 h
Description: Antiparasitic activity against chloroquine-sensitive Plasmodium falciparum by [3H]hypoxanthine incorporation

Plasmodium berghei [5] = test: Reduced parasitemia in Plasmodium berghei ANKA infected BALB/c mice (Mus musculus) at 21 mg/kg intraperitoneal dose after 4 days; assay type: functional; design: scale not given: the % may be the effect or the level left
Plasmodium berghei [6] = test: Antimalarial 95% clearance activity against Plasmodium berghei ANKA infected BALB/c mice (Mus musculus) at 21 mg/kg intraperitoneal dose after 4 days; assay type: functional
Plasmodium berghei [7] = test: Antimalarial activity against Plasmodium berghei ANKA infected BALB/c mice (Mus musculus) at 21 mg/kg intraperitoneal dose after 4 days; assay type: functional; conditions: ip, 96 h
Plasmodium berghei [8] = test: Reduced parasitemia in Plasmodium berghei ANKA infected BALB/c mice (Mus musculus) at 30 mg/kg intraperitoneal dose after 4 days; assay type: functional; design: scale not given: the % may be the effect or the level left
Plasmodium berghei [9] = test: Antimalarial 95% clearance activity against Plasmodium berghei ANKA infected BALB/c mice (Mus musculus) at 30 mg/kg intraperitoneal dose after 4 days; assay type: functional
Plasmodium berghei [10] = test: Antimalarial activity against Plasmodium berghei ANKA infected BALB/c mice (Mus musculus) at 30 mg/kg intraperitoneal dose after 4 days; assay type: functional; conditions: ip, 96 h
Plasmodium berghei [11] = test: Reduced parasitemia in Plasmodium berghei ANKA infected BALB/c mice (Mus musculus) at 10 mg/kg peroral dose after 4 days; assay type: functional; design: scale not given: the % may be the effect or the level left; conditions: route oral
Plasmodium berghei [12] = test: Antimalarial activity against Plasmodium berghei ANKA infected BALB/c mice (Mus musculus) at 10 mg/kg peroral dose after 4 days; assay type: functional; conditions: 96 h, route oral

| SMILES | IC50 (Plasmodium falciparum [1]) | IC50 (Plasmodium falciparum [2]) | Ratio IC50 (Plasmodium falciparum [3]) | CC50 (KB) | also measured |
| --- | --- | --- | --- | --- | --- |
| CC(C)(C)NCCNc1ccnc2cc(Cl)ccc12 | 0.0212 µM | 0.128 µM | 6 | 143 µM | – |
| CCN(CC)Cc1cc(Nc2ccnc3cc(Cl)ccc23)ccc1O.Cl | – | 0.0064 µM | 0.6 | – | IC50 (Plasmodium falciparum [4]): 0.0095 µM |
| COc1c(C)c(CN(CCNc2ccnc3cc(Cl)ccc23)C(C)C)c(OC)c2ccccc12 | 0.0837 µM | 0.105 µM | – | 85.8 µM | – |
| COc1cc(CN(CCNc2ccnc3cc(Cl)ccc23)CC(C)(C)C)c(OC)c2ccccc12 | 0.237 µM | 0.154 µM | – | 8.8 µM | – |
| CCN(CC)Cc1cc(Nc2ccnc3cc(Cl)ccc23)ccc1OCc1c(C(F)(F)F)c(OC)c2ccccc2c1OC | 0.032 µM | 0.032 µM | 1 | 15 µM | – |
| COc1c(C)c(CCCCCC(=O)N(CCNc2ccnc3cc(Cl)ccc23)C(C)C)c(OC)c2ccccc12 | 0.0528 µM | 0.302 µM | 5.7 | 6.9 µM | – |
| COc1cc(CNCCNc2ccnc3cc(Cl)ccc23)c(OC)c2ccccc12 | 0.0237 µM | 0.0284 µM | – | 3.8 µM | – |
| Clc1ccc2c(N3CC3)ccnc2c1 | 16 µM | 39.2 µM | 2.4 | 102 µM | – |
| COc1c(CNCCNc2ccnc3cc(Cl)ccc23)c(C(F)(F)F)c(OC)c2ccccc12 | 0.128 µM | 0.016 µM | – | 28.5 µM | – |
| COc1cc(CN(CCNc2ccnc3cc(Cl)ccc23)CC(C)C)c(OC)c2ccccc12 | 0.146 µM | 0.188 µM | – | 43.8 µM | – |
| CC1=C(CCCCCC(=O)NCCNc2ccnc3cc(Cl)ccc23)C(=O)c2ccccc2C1=O | 0.184 µM | 0.367 µM | 2 | 22.2 µM | – |
| COc1c(C)c(CN(CCNc2ccnc3cc(Cl)ccc23)CC(C)C)c(OC)c2ccccc12 | 0.183 µM | 0.0406 µM | – | 30.6 µM | – |
| COc1cc(CN(CCNc2ccnc3cc(Cl)ccc23)C(C)C)c(OC)c2ccccc12 | 0.517 µM | 0.345 µM | – | – | IC50 (KB): 67 µM |
| COc1c(CN(CCNc2ccnc3cc(Cl)ccc23)CC(C)C)c(C(F)(F)F)c(OC)c2ccccc12 | 0.162 µM | 0.198 µM | – | 11.9 µM | – |
| COc1c(CN(CCNc2ccnc3cc(Cl)ccc23)C(C)C)c(C(F)(F)F)c(OC)c2ccccc12 | 0.184 µM | 0.299 µM | – | 35.4 µM | – |
| COc1c(C)c(CNCCNc2ccnc3cc(Cl)ccc23)c(OC)c2ccccc12 | 0.229 µM | 0.0229 µM | – | 5.1 µM | – |
| CC(C)(C)CNCCNc1ccnc2cc(Cl)ccc12 | 0.0206 µM | 0.0068 µM | 0.3 | 62.1 µM | – |
| COc1c(C)c(Cc2ccc(CC(=O)NCCNc3ccnc4cc(Cl)ccc34)cc2)c(OC)c2ccccc12 | 0.289 µM | 0.505 µM | 1.7 | 11.5 µM | – |
| COc1c(C)c(Cc2ccc(CC(=O)N(CCNc3ccnc4cc(Cl)ccc34)C(C)C)cc2)c(OC)c2ccccc12 | 0.319 µM | 0.268 µM | 0.8 | 1.7 µM | – |
| Clc1ccc2c(NCCNCC3CC3)ccnc2c1 | 0.0027 µM | 0.145 µM | 53.7 | 71.9 µM | – |
| CC(C)NCCCNc1ccnc2cc(Cl)ccc12 | 0.0036 µM | 0.144 µM | 40 | 47.9 µM | – |

| SMILES | IC50 (Plasmodium falciparum [1]) | IC50 (Plasmodium falciparum [2]) | Ratio IC50 (Plasmodium falciparum [3]) | CC50 (KB) | also measured |
| --- | --- | --- | --- | --- | --- |
| CC(C)NCCNc1ccnc2cc(Cl)ccc12 | 0.0102 µM | 0.0967 µM | 9.5 | 89.8 µM | – |
| COc1c(C)c(CN(CCNc2ccnc3cc(Cl)ccc23)CC(C)(C)C)c(OC)c2ccccc12 | 0.156 µM | 0.134 µM | – | 10.6 µM | – |
| CC(C)(C)NC(=O)CNc1ccnc2cc(Cl)ccc12 | 0.994 µM | 1.44 µM | 1.4 | 194 µM | – |
| CC1=C(CCCCCC(=O)N(CCNc2ccnc3cc(Cl)ccc23)C(C)C)C(=O)c2ccccc2C1=O | 0.0075 µM | 0.0094 µM | 1.1 | 37 µM | Activity (Plasmodium berghei [5]): 12.5%; Activity (Plasmodium berghei [6]): 2.65%; inhibition in vivo at 21 mg/kg (Plasmodium berghei [7]): 18.2% |
| CC(=O)Nc1ccc(O)c(CN(CCCNc2ccnc3cc(Cl)ccc23)C(C)C)c1 | 0.0227 µM | 0.318 µM | – | 180 µM | – |
| CC(C)CNCCNc1ccnc2cc(Cl)ccc12 | 0.0228 µM | 0.072 µM | 3.1 | 22.5 µM | – |
| COc1c(COc2ccc(NC(C)=O)cc2)c(C(F)(F)F)c(OC)c2ccccc12 | 6.44 µM | 15.7 µM | 2.4 | > 715 µM | – |
| CC1=C(Cc2ccc(CC(=O)N(CCNc3ccnc4cc(Cl)ccc34)C(C)C)cc2)C(=O)c2ccccc2C1=O | 0.0124 µM | 0.0053 µM | 0.4 | 318 µM | – |
| COc1c(CN(CCNc2ccnc3cc(Cl)ccc23)CC(C)(C)C)c(C(F)(F)F)c(OC)c2ccccc12 | 0.146 µM | 0.116 µM | – | 12 µM | – |
| CC(C)(C)CNCCNc1ccnc2cc(Cl)ccc12.Cl | – | – | – | – | Activity (Plasmodium berghei [8]): 0.86%; Activity (Plasmodium berghei [9]): 0.31%; inhibition in vivo at 30 mg/kg (Plasmodium berghei [10]): 94.4% |
| COc1c(CNCCNc2ccnc3cc(Cl)ccc23)c(C(F)(F)F)c(OC)c2ccccc12.Cl | – | – | – | – | Activity (Plasmodium berghei [8]): 12.48%; Activity (Plasmodium berghei [9]): 2.82%; inhibition in vivo at 30 mg/kg (Plasmodium berghei [10]): 18.3% |
| CO[C@H]1O[C@@H]2O[C@@]3(C)CC[C@H]4[C@H](C)CC[C@@H]([C@H]1C)[C@@]24OO3 | – | – | – | – | IC50 (Plasmodium falciparum [4]): 0.0028 µM |
| NCCNc1ccnc2cc(Cl)ccc12 | 0.0045 µM | 1.8 µM | 400 | 49.6 µM | – |
| CC(=O)Nc1ccc(O)cc1 [ACETAMINOPHEN] | > 198 µM | 86.7 µM | <0.4 | – | – |
| C[C@@H]1CC[C@H]2[C@@H](C)C(=O)O[C@@H]3O[C@@]4(C)CC[C@@H]1[C@]32OO4 [ARTEMISININ] | – | – | – | – | IC50 (Plasmodium falciparum [4]): 0.0045 µM |
| CCN(CC)CCCC(C)Nc1ccnc2cc(Cl)ccc12 (stereo unspecified) [CHLOROQUINE] | – | – | – | 127 µM | Activity (Plasmodium berghei [11]): 0.13%; inhibition in vivo at 10 mg/kg (Plasmodium berghei [12]): 99.2% |
| O[C@@H](c1cc(C(F)(F)F)nc2c(C(F)(F)F)cccc12)[C@H]1CCCCN1 [MEFLOQUINE] | – | – | – | – | IC50 (Plasmodium falciparum [4]): 0.00485 µM |
| CN(C)c1ccc2nc3ccc(N(C)C)cc3[s+]c2c1 [METHYLENE BLUE ANHYDROUS] | – | – | – | – | IC50 (Plasmodium falciparum [4]): 0.0054 µM |
| Clc1ccc2c(N3CCN(CCCN4CCN(c5ccnc6cc(Cl)ccc56)CC4)CC3)ccnc2c1 [PIPERAQUINE] | – | – | – | – | IC50 (Plasmodium falciparum [4]): 0.0146 µM |
| COc1cc([C@@H]2c3cc4c(cc3[C@H](O)[C@H]3COC(=O)[C@H]23)OCO4)cc(OC)c1OC [PODOFILOX] | – | – | – | 49.6 µM | – |
